Experiment: mn = molality of the nth substance listed, in mol/kg
Conditions: Liquid, m1 = 7.377; for viscosity: Falling or rolling sphere viscometry; for mass density: Vibrating tube method

CN(CCO)CCO [N-methyldiethanolamine] + O
Conditions	mass density [kg/m3]	viscosity [mPa·s]
313.15 K, 6.3 kPa	1031.4	4.23
328.15 K, 13.7 kPa	1021.6	2.82
343.15 K, 27.4 kPa	1009.7	1.83

— the NIST ThermoML archive (doi:10.1016/j.jct.2016.06.007)
